Measurements published in US10202371B2, “Oxazolidin-2-one-pyrimidine derivatives and the use thereof as phosphatidylinositol-3-kinase inhibitors” (Novartis AG, priority 2012, dated 2019).

Target: human PI3Kalpha p110 catalytic subunit (Rat-1 cells) (Homo sapiens (Human), UniProt P42336)
Experiment: Cellular assay PI3Kalpha, p-Akt(S473) SureFire in Rat-1_PI3Kalpha cells
Format: cell-based
Details: p-AKT(Ser473), 1 h treatment
Source text: AlphaScreen (Amplified Luminescent Proximity Homogeneous Assay, ALPHA, Perkin Elmer) is a non-radioactive bead-based proximity assay technology to study biomolecular interactions in a homogenous microtiter plate format. The brand name SureFire denotes AlphaScreen assays that are adapted to quantify the phosphorylation of endogenous cellular proteins in cell lysates, by using matched antibody pairs, which consist of an anti-phospho-kinase and an anti-kinase antibody. The assay allows characterization of kinase signaling in cells as well as measurement of kinase inhibitor effects. The AlphaScreen technology provides several advantages over standard assay techniques such as ELISA, as it avoids time-consuming washing procedures and reduces plate handling. Furthermore, it is miniaturizable at least to a 384-well format and provides sensitivity down to the femtomolar range, dependent on the affinity of the antibodies included in the individual AlphaScreen SureFire assay kit. High sensitivity is reached by an intrinsic amplification mechanism, which involves production of singlet oxygen molecules. SureFire assay kits are commercially available for specific targets and include pairs of validated antibodies (PerkinElmer). […]

human PI3Kalpha p110 catalytic subunit (Rat-1 cells), sequence (P42336 whole entry): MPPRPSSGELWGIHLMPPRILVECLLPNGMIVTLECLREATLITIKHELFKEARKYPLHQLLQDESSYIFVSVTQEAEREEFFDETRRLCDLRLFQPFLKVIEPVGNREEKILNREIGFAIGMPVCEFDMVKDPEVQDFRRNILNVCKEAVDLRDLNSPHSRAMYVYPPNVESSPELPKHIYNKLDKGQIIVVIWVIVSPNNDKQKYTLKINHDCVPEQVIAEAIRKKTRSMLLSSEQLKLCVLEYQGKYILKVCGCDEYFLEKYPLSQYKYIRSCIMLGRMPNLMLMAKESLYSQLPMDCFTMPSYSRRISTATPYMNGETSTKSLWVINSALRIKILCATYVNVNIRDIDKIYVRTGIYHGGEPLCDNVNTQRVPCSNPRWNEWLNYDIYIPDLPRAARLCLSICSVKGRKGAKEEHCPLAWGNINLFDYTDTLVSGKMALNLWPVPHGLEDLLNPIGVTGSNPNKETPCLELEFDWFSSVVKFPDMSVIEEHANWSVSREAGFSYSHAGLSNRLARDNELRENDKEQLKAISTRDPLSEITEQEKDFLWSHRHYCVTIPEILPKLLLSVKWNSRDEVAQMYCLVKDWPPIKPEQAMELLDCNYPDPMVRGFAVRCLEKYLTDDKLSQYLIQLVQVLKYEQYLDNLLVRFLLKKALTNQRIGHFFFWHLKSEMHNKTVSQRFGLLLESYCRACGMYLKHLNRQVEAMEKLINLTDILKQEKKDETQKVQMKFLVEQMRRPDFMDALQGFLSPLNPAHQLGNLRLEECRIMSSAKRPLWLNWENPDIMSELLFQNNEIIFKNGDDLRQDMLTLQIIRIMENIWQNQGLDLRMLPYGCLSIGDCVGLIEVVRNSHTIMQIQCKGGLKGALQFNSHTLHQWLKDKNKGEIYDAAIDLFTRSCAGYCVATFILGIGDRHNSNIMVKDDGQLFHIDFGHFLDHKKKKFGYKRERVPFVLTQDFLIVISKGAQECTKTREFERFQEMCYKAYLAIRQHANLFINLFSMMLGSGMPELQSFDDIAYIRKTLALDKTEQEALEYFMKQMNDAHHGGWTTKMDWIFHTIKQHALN
human PI3Kalpha p110 catalytic subunit (Rat-1 cells), sequence (Q63787 whole entry partner): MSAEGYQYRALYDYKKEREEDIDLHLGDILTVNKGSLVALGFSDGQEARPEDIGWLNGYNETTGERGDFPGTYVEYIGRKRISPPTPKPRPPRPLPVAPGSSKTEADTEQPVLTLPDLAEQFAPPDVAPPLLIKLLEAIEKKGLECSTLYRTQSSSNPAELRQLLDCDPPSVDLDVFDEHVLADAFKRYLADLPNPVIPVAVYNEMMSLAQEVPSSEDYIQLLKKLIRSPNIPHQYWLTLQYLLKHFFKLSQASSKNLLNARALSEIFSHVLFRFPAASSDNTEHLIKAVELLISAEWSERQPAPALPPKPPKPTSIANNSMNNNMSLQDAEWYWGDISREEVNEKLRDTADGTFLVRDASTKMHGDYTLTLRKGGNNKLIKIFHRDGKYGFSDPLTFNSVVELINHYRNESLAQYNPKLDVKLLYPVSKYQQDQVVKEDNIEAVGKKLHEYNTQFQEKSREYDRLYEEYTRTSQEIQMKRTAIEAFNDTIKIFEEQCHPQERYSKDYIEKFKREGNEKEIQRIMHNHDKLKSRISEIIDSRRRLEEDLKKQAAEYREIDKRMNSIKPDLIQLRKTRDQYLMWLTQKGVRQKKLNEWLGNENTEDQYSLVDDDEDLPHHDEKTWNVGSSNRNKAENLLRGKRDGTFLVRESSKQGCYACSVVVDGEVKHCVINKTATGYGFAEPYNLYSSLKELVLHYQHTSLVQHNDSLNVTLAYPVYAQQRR

Q: For `Nc1ncc(-c2cc(N3C(=O)O[C@@H](c4ccccc4)[C@@H]3CO)nc(N3CCOCC3)n2)c(C(F)(F)F)n1` [Example 10], which Rat1-PI3Ka/IC50 is on record?
A: The Rat1-PI3Ka/IC50 was 0.085 umol I-1.
